Measurements from EP4748844A1, “AZETIDINE COMPOUND AND MEDICAL USE THEREOF” (SHANGHAI INSTITUTE OF MATERIA MEDICA, CHINESE ACADEMY OF …, priority 2023, dated 2025).

Assays:
[1] = tested on: ISG gene expression induced by MSA-2 in human THP1-Dual cells; test: Inhibition of MSA-2-induced ISG gene expression in human THP1-Dual cells (QUANTI-Luc); assay type: cell-based; conditions: STING agonist MSA-2 10 µM, incubated for 24 hours
Method: 10 µL of compound diluted with PBS/physiological saline was added to each well of a 96 well cell culture plate. The STING agonist was MSA-2, which was added to the counted cell suspension at a final concentration of 10 µM. For the control group without compounds, 10 µL of PBS/physiological saline containing 2% DMSO was added. 3 replicate wells were set in each group. THP1-Dual cells were counted and adjusted to a cell concentration of 4×10^5/mL, and 190 µL of cells containing STING agonist were added to each well for incubation. Therefore, the final volume of each test well was 200 µL, the content of DMSO was 0.1%, and the final concentration of the compound tested was 10/3.3/1.1/0.4/0.13/0.04/0.013/0.004 µM, incubated for 24 hours. In addition, 190 µL of cells without STING agonist and 10 µL of physiological saline containing 2% DMSO were added to the blank group. 3 replicate wells were set in each group.
After 24 hours, 20 µL of culture medium for THP1-Dual cells was taken from each well and transferred to a new 96 well plate with photopermeable bottom. 50 µL of the luciferase detection reagent QUANTI-Luc™ was added, and the […] was immediately measured (avoid light). Result analysis:Inhibition rate (%) = (Con(Lum)−Treated(Lum))/Con(Lum) × 100% [formula]
(§1) The IC50 calculation of inhibitors was implemented using the Graphpad Prism 8 software's calculation method log (inhibitor) vs. response - Variable slope (four parameters), with a constrain interval of 0-100.

[2] = tested on: DMXAA induced ISG gene expression in mouse RAW-Lucia cells; test: Inhibition of DMXAA-induced ISG gene expression in mouse RAW-Lucia cells (QUANTI-Luc); assay type: cell-based; conditions: STING agonist DMXAA 50 µM, incubated for 24 hours
Method: 10 µL of compound diluted with PBS/physiological saline was added to each well of a 96 well cell culture plate. The STING agonist was DMXAA, which was added to the counted cell suspension at a final concentration of 50 µM. For the control group without compounds, 10 µL of PBS/physiological saline containing 2% DMSO was added. 3 replicate wells were set in each group. RAW-Lucia cells were counted and adjusted to a cell concentration of 4×10^5/mL, and […] of cells were added to each well for incubation. Therefore, the final volume of each test well was 200 µL, the content of DMSO was 0.1%, and the final concentration of the compound tested was 10/3.3/1.1/0.4/0.13/0.04/0.013/0.004 µM. The final concentration of STING agonist DMXAA was 50 µM. The mixture was incubated for 24 hours. In addition, 200 µL of culture medium was added to the blank group. 3 replicate wells were set in each group.
After 24 hours, 20 µL of culture medium was taken from each well and transferred to a new 96 well plate with photopermeable bottom. 50 µL of the luciferase detection reagent QUANTI-Luc™ was added, and the […] was immediately measured (avoid light).
Result analysis: Inhibition rate (%) = (Con(Lum)−Treated(Lum))/Con(Lum) × 100% [formula]
as §1

IC50 [1]	IC50 [2]	Compound
119 nM	–	1-((4-chlorothien-3-yl)methyl)-N-(1H-indol-3-yl)-3,3-dimethyl-2-oxoindolin-6-carboxamide [Example I-89]
635 nM	271 nM	CCc1ccc(NC(=O)Nc2c[nH]c3ccccc23)cc1 [Example H151, H-151, reference compound]
16.5 nM	19.4 nM	CC1(C)C(=O)N(Cc2ccsc2)c2cc(C(=O)Nc3c[nH]c4ccccc34)sc21 [Example I-85, N-(1H-indol-3-yl)-6,6-dimethyl-5-oxo-4-(thien-3-ylmethyl)-5,6-dihydro-4H-thieno[3,2-b]pyrrol-2-carboxamide]
149 nM	–	CC1(C)C(=O)N(Cc2ccccc2)c2cc(C(=O)Nc3c[nH]c4ccccc34)sc21 [Example I-87, 4-benzyl-N-(1H-indol-3-yl)-6,6-dimethyl-5-oxo-5,6-dihydro-4H-thieno[3,2-b]pyrrol-2-carboxamide]
74.8 nM	–	CC1(C)C(=O)N(Cc2ccc3occc3c2)c2cc(C(=O)Nc3c[nH]c4ccccc34)ccc21 [Example I-93, 1-(benzofuran-5-ylmethyl)-N-(1H-indol-3-yl)-3,3-dimethyl-2-oxoindolin-6-carboxamide]
228 nM	–	CC1(C)C(=O)N(Cc2ccccc2-c2ccccc2)c2cc(C(=O)Nc3c[nH]c4ccccc34)ccc21 [Example I-95, 1-([1,1'-biphenyl]-2-ylmethyl)-N-(1H-indol-3-yl)-3,3-dimethyl-2-oxoindolin-6-carboxamide]
59.6 nM	15.1 nM	CC(c1ccccc1)N1C(=O)C(C)(C)c2ccc(C(=O)Nc3c[nH]c4ccccc34)cc21 (stereo not drawn) [Example I-100, N-(1H-indol-3-yl)-3,3-dimethyl-2-oxo-1-(1-phenethyl)indolin-6-carboxamide]
147 nM	2.72 nM	CC1(C)C(=C=O)N(CCc2ccccc2)c2cc(C(=O)Nc3c[nH]c4ccc(F)cc34)ccc21 [Example I-107, N-(5-fluoro-1H-indol-3-yl)-3,3-dimethyl-2-carbonyl-1-phenethylindolin-6-carboxamide]
32.1 nM	11.8 nM	CC1(C)C(=O)N(Cc2csc3ccccc23)c2cc(C(=O)Nc3c[nH]c4ccccc34)ccc21 [Example I-109, 1-(benzo[b]thien-3-ylmethyl)-N-(1H-indol-3-yl)-3,3-dimethyl-2-indolin-6-carboxamide]
123 nM	29.1 nM	CC1(C)C(=O)N(Cc2cc(F)cc(C(F)(F)F)c2)c2cc(C(=O)Nc3c[nH]c4cc(F)c(F)cc34)ccc21 [Example I-111]

Further lines, the compound ahead of its results:

Compound	IC50 [1]	IC50 [2]
CC1(C)C(=O)N(CC2CN(c3cc(F)cc(C(F)(F)F)c3)C2)c2cc(C(=O)Nc3c[nH]c4ccc(F)cc34)ccc21 [Example I-28]	–	62 nM
CC1(C)C(=O)N(Cc2csc(Cl)c2)c2cc(C(=O)Nc3c[nH]c4ccccc34)ccc21 [Example I-84, 1-((5-chlorothien-3-yl)methyl)-N-(1H-indol-3-yl)-3,3-dimethyl-2-oxoindolin-6-carboxamide]	20.5 nM	4.69 nM
CC1(C)C(=O)N(Cc2ccoc2)c2cc(C(=O)Nc3c[nH]c4ccccc34)sc21 [Example I-86, 4-(furan-3-ylmethyl)-N-(1H-indol-3-yl)-6,6-dimethyl-5-oxo-5,6-dihydro-4H-thieno[3,2-b]pyrrol-2-carboxamide]	221 nM	–
CC1(C)C(=O)N(Cc2cc(F)cc(C(F)(F)F)c2)c2cc(C(=O)Nc3c[nH]c4ccccc34)sc21 [Example I-88, 4-(3-fluoro-5-(trifluoromethyl)benzyl)-N-(1H-indol-3-yl)-6,6-dimethyl-5-oxo-5,6-dihydro-4H-thieno[3,2-b]pyrrol-2-carboxamide]	143 nM	–
CC1(C)C(=O)N(Cc2csc(C(F)(F)F)c2)c2cc(C(=O)Nc3c[nH]c4ccccc34)sc21 [Example I-90, N-(1H-indol-3-yl)-6,6-dimethyl-5-oxo-4-((5-(trifluoromethyl)thien-3-yl)methyl)-5,6-dihydro-4H-thieno[3,2-b]pyrrol-2-carboxamide]	98 nM	–
CC1(C)C(=O)N(Cc2coc(Cl)c2)c2cc(C(=O)Nc3c[nH]c4ccccc34)sc21 [Example I-91, 4-((5-chlorofuran-3-yl)methyl)-N-(1H-indol-3-yl)-6,6-dimethyl-5-oxo-5,6-dihydro-4H-thieno[3,2-b]pyrrol-2-carboxamide]	117 nM	–
CC1(C)C(=O)N(Cc2ccc3c(c2)OCO3)c2cc(C(=O)Nc3c[nH]c4ccccc34)ccc21 [Example I-92, 1-(benzo[d][1,3]dihydroxyl-5-ylmethyl)-N-(1H-indol-3-yl)-3,3-dimethyl-2-oxoindol-6-carboxamide]	28.8 nM	94 nM
CC1(C)C(=O)N(Cc2ccc3[nH]ccc3c2)c2cc(C(=O)Nc3c[nH]c4ccccc34)ccc21 [Example I-94, 1-(indol-5-ylmethyl)-N-(1H-indol-3-yl)-3,3-dimethyl-2-oxoindolin-6-carboxamide]	106 nM	–
CC1(C)C(=O)N(Cc2cccc3ccoc23)c2cc(C(=O)Nc3c[nH]c4ccccc34)ccc21 [Example I-97, 1-(benzofuran-7-ylmethyl)-N-(1H-indol-3-yl)-3,3-dimethyl-2-oxoindolin-6-carboxamide]	3.3 nM	17.1 nM
CCC1(C)C(=O)N(Cc2ccccc2)c2cc(C(=O)Nc3c[nH]c4ccccc34)ccc21 (stereo not drawn) [Example I-101]	16.4 nM	38.5 nM
CC1(C)C(=O)N(Cc2csc(C(F)(F)F)c2)c2cc(C(=O)Nc3c[nH]c4ccccc34)ccc21 [Example I-102]	20.8 nM	10.6 nM
CC1(C)C(=O)N(Cc2cc(F)cc(C(F)(F)F)c2)c2cc(C(=O)Nc3c[nH]c4ccccc34)ccc21 [Example I-104]	33.1 nM	8.69 nM
CC1(C)C(=O)N(Cc2ccccc2)c2cc(C(=O)Nc3c[nH]c4ccc(F)cc34)ccc21 [Example I-105]	70.4 nM	3.38 nM
CC1(C)C(=O)N(CCc2ccsc2)c2cc(C(=O)Nc3c[nH]c4ccccc34)ccc21 [Example I-108, N-(1H-indol-3-yl)-3,3-dimethyl-2-carbonyl-1-(2-(thien-3-yl)ethyl) indolin-6-carboxamide]	71.4 nM	1.74 nM
CC1(C)C(=O)N(Cc2cc(F)cc(C(F)(F)F)c2)c2cc(C(=O)Nc3c[nH]c4ccc(F)cc34)ccc21 [Example I-110]	36.8 nM	14.3 nM
O=C(Nc1c[nH]c2ccccc12)c1cc2c(s1)SCC(=O)N2Cc1ccsc1 [Example I-112, N-(1H-indol-3-yl)-2-oxo-1-(thien-3-ylmethyl)-2,3-dihydro-1H-thieno[2,3-b][1,4]thiazin-6-carboxamide]	46.5 nM	41.9 nM
O=C(Nc1c[nH]c2ccccc12)c1cc2c(s1)SCC(=O)N2Cc1ccc2occc2c1 [Example I-113, 1-(benzofuran-5-ylmethyl)-N-(1H-indol-3-yl)-2-oxo-2,3-dihydro-1H-thieno[2,3-b][1,4]thiazin-6-carboxamide]	39.4 nM	27.9 nM
O=C(Nc1c[nH]c2ccccc12)c1cc2c(s1)SCC(=O)N2Cc1cccs1 [Example I-114, N-(1H-indol-3-yl)-2-oxo-1-(thien-2-ylmethyl)-2,3-dihydro-1H-thieno[2,3-b][1,4]thiazin-6-carboxamide]	164 nM	–
O=C(Nc1c[nH]c2ccccc12)c1cc2c(s1)SCC(=O)N2CC1CC1 [Example I-116, 1-(cyclopropylmethyl)-N-(1H-indol-3-yl)-2-oxo-2,3-dihydro-1H-thieno[2,3-b][1,4]thiazin-6-carboxamide]	206 nM	–
O=C(Nc1c[nH]c2ccccc12)c1cc2c(s1)SCC(=O)N2CC1CCOCC1 [Example I-119, N-(1H-indol-3-yl)-2-oxo-1-((tetrahydro-2H-pyran-4-yl)methyl)-2,3-dihydro-1H-thieno[2,3-b][1,4]thiazin-6-carboxamide]	–	45.5 nM
CC1(C)C(=O)N(Cc2cccc3ccoc23)c2cc(C(=O)Nc3c[nH]c4cc(F)c(F)cc34)ccc21 [Example I-127, 1-(benzofuran-7-ylmethyl)-N-(5,6-difluoro-1H-indol-3-yl)-3,3-dimethyl-2-oxoindolin-6-carboxamide]	291 nM	–
